Source: patent US8455525B2, “Selective androgen receptor modulators” (Radius Health, Inc., priority 2008, dated 2013)

Each compound was assayed against T1, androgen receptor (AR) (Rattus norvegicus, UniProt P15207) (assay: androgen receptor binding assay (fluorescence polarization, Fluormone AL Green competition)). Conditions: not given.
T1 construct: purchased Invitrogen, Madison, Wis
T1 sequence (P15207 651-902 limits assumed): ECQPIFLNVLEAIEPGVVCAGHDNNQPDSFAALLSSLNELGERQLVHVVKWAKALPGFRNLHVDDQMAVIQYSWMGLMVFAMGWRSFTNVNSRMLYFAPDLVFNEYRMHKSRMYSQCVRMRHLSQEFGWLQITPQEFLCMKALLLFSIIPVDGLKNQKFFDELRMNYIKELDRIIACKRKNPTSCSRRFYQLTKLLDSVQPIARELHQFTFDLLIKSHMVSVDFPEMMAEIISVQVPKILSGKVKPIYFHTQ
Experimental: The assay was performed as specified by the manufacturer (Invitrogen, Madison, Wis.). Briefly, 1 μl of 10 mM compound was added to 500 μl of AR screening buffer in a 1.5 ml eppendorf tube to make a 2×10^−5M stock. 10-fold serial dilutions of the test compounds were prepared ranging in concentration from 10^−5M to 10^−12M. Each dilution was added in triplicate to a black 384-microtiter plate. The test compounds will be diluted 2-fold in the final reaction. 2×AR-Fluormone™ complex was prepared with 2 nM Flourmone AL Green™ and 30 nM AR. 25 μl of 2× complex was aliquoted to each reaction well, such that the final reaction volume was 50 μl per well. Plate was sealed with a foil cover and incubated in the dark at room temperature for 4 h. Polarization values for each well were measured. The polarization values were plotted against the concentration of the test compound. […] As a control, a competition curve for R1881 (methyltrienolone) was performed for each assay. Curve Fitting was performed using GraphPad Prism® software from GraphPad™ Software Inc. Binding data are reported as a single determination if the experiment was run once only and as the average of experiments if the binding experiment was performed two or more times with that compound.
Where multiple data points have been taken, the value reported is the average of the multiple determinations.
For Cc1c(N[C@@H](c2nnc(-c3ccc(F)cc3)o2)[C@H](C)O)ccc(C#N)c1Cl [Example 5, 2-Chloro-4-((1R,2S)-1-(5-(4-fluorophenyl)-1,3,4-oxadiazol-2-yl)-2-hydroxypropylamino)-3-methylbenzonitrile], the IC50 was 50 nM.
Compound Cc1c(N[C@@H](c2nnc(-c3ccc(C(F)(F)F)cc3)o2)[C@H](C)O)ccc(C#N)c1Cl [Example 68, 2-chloro-4-((1R,2S)-2-hydroxy-1-(5-(4-(trifluoromethyl)phenyl)-1,3,4-oxadiazol-2-yl)propylamino)-3-methylbenzonitrile] has an IC50 of 12 nM.
Cc1c(N[C@@H](c2nnc(-c3ccc(Cl)cc3)o2)[C@@H](C)O)ccc(C#N)c1Cl [Example 20, 2-Chloro-4-((1R,2R)-1-(5-(4-chlorophenyl)-1,3,4-oxadiazol-2-yl)-2-hydroxypropylamino)-3-methylbenzonitrile] gave an IC50 of 15 nM.
In the case of Cc1c(N[C@@H](c2nnc(-c3ccc(O)cc3)o2)[C@@H](C)O)ccc(C#N)c1Cl [Example 10, 2-chloro-4-((1R,2R)-2-hydroxy-1-(5-(4-hydroxyphenyl)-1,3,4-oxadiazol-2-yl)propylamino)-3-methylbenzonitrile], the IC50 is reported as 15 nM.
With C=Cc1c(N[C@@H](c2nnc(-c3ccc(C#N)cc3)o2)[C@H](C)O)ccc(C#N)c1Cl [Example 80, 2-chloro-4-((1R,2S)-1-(5-(4-cyanophenyl)-1,3,4-oxadiazol-2-yl)-2-hydroxypropylamino)-3-vinylbenzonitrile] the IC50 was 1 nM.
In the case of Cc1c(N[C@@H](c2nnc(-c3ccc(O)c(Cl)c3)o2)[C@@H](C)O)ccc(C#N)c1Cl [Example 30, 2-Chloro-4-((1R,2R)-1-(5-(3-chloro-4-hydroxyphenyl)-1,3,4-oxadiazol-2-yl)-2-hydroxypropylamino)-3-methylbenzonitrile], the IC50 is reported as 0.3 nM.
With Cc1c(N[C@@H](c2nnc(-c3ccc(F)cc3F)o2)[C@@H](C)O)ccc(C#N)c1Cl [Example 35, 2-Chloro-4-((1R,2R)-1-(5-(2,4-difluorophenyl)-1,3,4-oxadiazol-2-yl)-2-hydroxypropylamino)-3-methylbenzonitrile] the IC50 was 0.2 nM.
Cc1c(N[C@H](CO)c2nnc(-c3ccccc3)o2)ccc(C#N)c1Cl [Example 17, (R)-2-chloro-4-(2-hydroxy-1-(5-phenyl-1,3,4-oxadiazol-2-yl)ethylamino)-3-methylbenzonitrile] showed an IC50 of 10 nM.
Compound Cc1c(N[C@@H](c2nnc(-c3cccc(O)c3)o2)[C@@H](C)O)ccc(C#N)c1Cl [Example 9, 2-chloro-4-((1R,2R)-2-hydroxy-1-(5-(3-hydroxyphenyl)-1,3,4-oxadiazol-2-yl)propylamino)-3-methylbenzonitrile] has an IC50 of 10 nM.
Cc1c(N[C@@H](c2nnc(-c3ccc(C#N)cc3)o2)[C@H](C)O)ccc(C#N)c1Cl [Example 22, 2-chloro-4-((1R,2S)-1-(5-(4-cyanophenyl)-1,3,4-oxadiazol-2-yl)-2-hydroxypropylamino)-3-methylbenzonitrile] gave an IC50 of 2 nM.
For CC(=O)Nc1ccc(-c2nnc([C@H](Nc3ccc(C#N)c(Cl)c3C)[C@H](C)O)o2)cc1 [Example 78, N-(4-(5-((1R,2S)-1-(3-Chloro-4-cyano-2-methylphenylamino)-2-hydroxypropyl)-1,3,4-oxadiazol-2-yl)phenyl)acetamide], the IC50 was 1 nM.
For Cc1c(N[C@@H](c2nnc(-c3ccc(NC(=O)c4ccccc4)cc3)o2)[C@@H](C)O)ccc(C#N)c1Cl [Example 69, N-(4-(5-((1R,2R)-1-(3-Chloro-4-cyano-2-methylphenylamino)-2-hydroxypropyl)-1,3,4-oxadiazol-2-yl)phenyl)benzamide], the IC50 was over 1000 nM.
Work on C[C@@H](O)[C@@H](Nc1ccc(C#N)c(C(F)(F)F)c1)c1nnc(-c2ccc(C#N)cc2)o1 [Example 44, 4-((1R,2R)-1-(5-(4-Cyanophenyl)-1,3,4-oxadiazol-2-yl)-2-hydroxypropylamino)-2-(trifluoro-methyl)benzonitrile] yielded an IC50 of 5 nM.
Cc1c(N[C@@H](c2nnc(-c3ccc(F)c(F)c3)o2)[C@@H](C)O)ccc(C#N)c1Cl [Example 39, 2-Chloro-4-((1R,2R)-1-(5-(3,4-difluorophenyl)-1,3,4-oxadiazol-2-yl)-2-hydroxypropylamino)-3-methylbenzonitrile] gave an IC50 of 0.1 nM.
Compound C[C@H](O)[C@@H](Nc1ccc(C#N)c(Cl)c1)c1nnc(-c2ccc(C#N)cc2)o1 [Example 50, 2-Chloro-4-((1R,2S)-1-(5-(4-cyanophenyl)-1,3,4-oxadiazol-2-yl)-2-hydroxypropylamino)benzonitrile] has an IC50 of 5 nM.
For Cc1c(N[C@@H](c2nnc(-c3ccc(F)c(O)c3)o2)[C@@H](C)O)ccc(C#N)c1Cl [Example 41, 2-Chloro-4-((1R,2R)-1-(5-(4-fluoro-3-hydroxyphenyl)-1,3,4-oxadiazol-2-yl)-2-hydroxypropylamino)-3-methylbenzonitrile], the IC50 was 0.02 nM.
For Cc1c(N[C@@H](c2nnc(-c3ccc(C#N)cc3)o2)[C@@H](C)O)ccc(C#N)c1C(F)(F)F [Example 31, 4-((1R,2R)-1-(5-(4-cyanophenyl)-1,3,4-oxadiazol-2-yl)-2-hydroxypropylamino)-3-methyl-2-(trifluoromethyl)benzonitrile], the IC50 was 5.9 nM.
Cc1c(N[C@@H](c2nnc(-c3ccc(S(C)(=O)=O)cc3)o2)[C@H](C)O)ccc(C#N)c1Cl [Example 24, 2-chloro-4-((1R,2S)-2-hydroxy-1-(5-(4-(methylsulfonyl)phenyl)-1,3,4-oxadiazol-2-yl)propylamino)-3-methylbenzonitrile] showed an IC50 of 200 nM.
C[C@@H](O)[C@@H](Nc1ccc(C#N)c2ccccc12)c1nnc(-c2ccccc2)o1 [Example 52, 4-((1R,2R)-2-Hydroxy-1-(5-phenyl-1,3,4-oxadiazol-2-yl)propylamino)-1-naphthonitrile] gave an IC50 of 9 nM.
Cc1c(N[C@H](CO)c2nnc(-c3ccc(C#N)cc3)o2)ccc(C#N)c1Cl [Example 58, (R)-2-Chloro-4-(1-(5-(4-cyanophenyl)-1,3,4-oxadiazol-2-yl)-2-hydroxyethylamino)-3-methylbenzonitrile] gave an IC50 of 10 nM.
For C[C@H](O)[C@@H](Nc1ccc(C#N)c2sccc12)c1nnc(-c2ccc(F)cc2)o1 [Example 62, 4-((1R,2S)-1-(5-(4-fluorophenyl)-1,3,4-oxadiazol-2-yl)-2-hydroxypropylamino)benzo[b]thiophene-7-carbonitrile], the IC50 was 15 nM.
Work on CCCC(=O)Nc1ccc(-c2nnc([C@H](Nc3ccc(C#N)c(Cl)c3C)[C@@H](C)O)o2)cc1 [Example 71, N-(4-(5-((1R,2R)-1-(3-Chloro-4-cyano-2-methylphenylamino)-2-hydroxypropyl)-1,3,4-oxadiazol-2-yl)phenyl)butyramide] yielded an IC50 of 280 nM.
Cc1c(N[C@@H](c2nnc(-c3ccc(Cl)cc3)o2)[C@H](C)O)ccc(C#N)c1Cl [Example 4, 2-chloro-4-((1R,2S)-1-(5-(4-chlorophenyl)-1,3,4-oxadiazol-2-yl)-2-hydroxypropylamino)-3-methylbenzonitrile] showed an IC50 of 11 nM.

Same assay, conditions: single determination or average of multiple determinations; read-out: Binding IC50 (AR-Binding Affinity)
For C[C@H](O)[C@@H](Nc1ccc(C#N)c2sccc12)c1nnc(-c2ccc(C#N)cc2)o1 [Example 60, 4-((1R,2S)-1-(5-(4-cyanophenyl)-1,3,4-oxadiazol-2-yl)-2-hydroxypropylamino)benzo[b]thiophene-7-carbonitrile], the IC50 was 8 nM.
Compound Cc1c(N[C@@H](c2nnc(-c3ccccc3)o2)C(C)(C)O)ccc(C#N)c1Cl [Example 14, (R)-2-chloro-4-(2-hydroxy-2-methyl-1-(5-phenyl-1,3,4-oxadiazol-2-yl)propylamino)-3-methylbenzonitrile] has an IC50 of 17 nM.
